# Data as given in patent publication US12492223B2, “Peptide compositions capable of binding lanthionine synthetase C-like protein (LanCl) and uses thereof” (priority 2021, dated 2025).
# Values joined by “and” are separate entries in the source; they are usually repeats but may differ in a detail not shown here. Equal entries are not always repeated. Where two headings read alike, the source gives them in different places.
# Legend:
# Chung model rats = experiment: In vivo model of neuropathic pain (II): spinal nerve ligation (Chung) model, paw withdrawal threshold; parameters: species or system rat; conditions: mean ± SEM, n=6
# Description: The spinal nerve ligation (Chung) model was prepared as described in Example 4, above. Briefly, sixty-four adult male Sprague-Dawley rats, 8-9 weeks old, weighing 250-350 g at the time of surgery, were purchased from Charles River UK Ltd. The animals were housed in groups of 4 in an air-conditioned room on a 12-hour light/dark cycle. Food and water were available ad libitum. Animals were allowed to acclimatise to the environment for experiments for three days by leaving them on a raised metal mesh for at least 40 minutes. The baseline paw withdrawal threshold (PWT) was examined using a series of graduated von Frey hairs for 3 consecutive days before surgery and re-assessed on the 7th day after surgery and on the 12th to 14th day after surgery before drug dosing.
# Each rat was anaesthetized with 5% isoflurane mixed with oxygen (2 L per min) followed by an intramuscular (i.m.) injection of ketamine 60 mg/kg plus xylazine 10 mg/kg. The back was shaved and sterilized with povidone-iodine. The animal was placed in a prone position and a para-medial incision was made on the skin covering the L4-6 level. The L5 spinal nerve was carefully isolated and tightly ligated with 6/0 silk suture. The wound was then closed in layers after a complete haemostasis. A single dose of antibiotics (Amoxipen, 15 mg/rat, i.p.) was routinely given for prevention of infection after surgery. The animals were placed in a temperature-controlled recovery chamber until fully awake before being returned to their home cages.
# Animals with validated neuropathic pain state were randomly divided into 4 experimental groups: Vehicle (5% DMSO first then in 0.9% saline), 3 mg/kg LAT9997, 3 mg/kg LAT9997×1, and 3 mg/kg LAT1233×1. Each group contained 6 animals.
# RSVEGS (SEQ ID NO:9; LAT9997), SVEGS (SEQ NO: 62; LAT9997×1) and ALNSS (SEQ ID NO:63; LAT1233×1) were dissolved in 5% DMSO first then in 0.9% saline, which also served as the vehicle control. All compounds were provided from GenScript for Lateral Pharma. All vehicle/compounds were administrated intravenously at 1 ml/kg body weight.
# The animals were placed in individual Perspex boxes on a raised metal mesh for at least 40 min. Starting from the filament of lowest force (1 gram (g)), each vFH filament was applied perpendicularly to the centre of the ventral surface of the paw until it slightly bent for 6 seconds. If the animal withdrew or lifted its paw upon stimulation, a filament with force immediately lower than that tested was used. If no response was observed, a filament with force immediately higher was then tested. The lowest amount of force required to induce reliable responses (positive in 2 out of 3 trials) was recorded as the value of the PWT.
# PWT was assessed once daily for three days before surgery (pre D1, Pre D2 and D0) and on day 7 following surgery for monitoring the development of mechanical allodynia.
# All drug tests were carried out on the 13th to 17th day after surgery. […]
# One-way analysis of variance (ANOVA) (IBM statistics SPSS, Version 27) was used for statistical analysis to compare PWT of different groups at the same time points. When appropriate, Fisher's Least Significant Difference (LSD) post-hoc test was used to compare drug treatment groups to the control groups. A paired Student's t-test (Microsoft Excel 365) was used to compare values of different time points in the same group. To characterise the drug-induced change in PWT relative to vehicle, vehicle values were subtracted from the appropriate drug values. The significance level was set at P<0.05.
# HKx31 (H3N2) = type: in vivo, mice; parameters: key to PMN activity score / Viral titre activity score / BAL IL-6 activity score: 0: inactive; 1: less active than the peptide of SEQ ID NO:38; 2: comparable or more active than the peptide of SEQ ID NO:38; conditions: for IL-6 levels in the BAL fluid / viral titres: 10 mg/kg single dose
# [1] = 1 hour after 3 mg/kg intravenously, listed as LAT9997
# [2] = 2 hours after 3 mg/kg intravenously, listed as LAT9997
# [3] = 4 hours after 3 mg/kg intravenously, listed as LAT9997
# [4] = Pre-dosing, 3 mg/kg group, listed as LAT9997, 3 mg/kg
# [5] = PMN infiltrate in BAL fluid, […], relative to SEQ ID NO:38, 10 mg/kg
# [6] = single 10 mg/kg dose, day 3, relative to SEQ ID NO:38
# [7] = 1 hour after 3 mg/kg intravenously
# [8] = 2 hours after 3 mg/kg intravenously
# [9] = 4 hours after 3 mg/kg intravenously
# [10] = 1 hour after 3 mg/kg intravenously, listed as LAT1233x1
# [11] = 1 hour after 3 mg/kg intravenously, listed as LAT1233×1
# [12] = 2 hours after 3 mg/kg intravenously, listed as LAT1233x1
# [13] = 2 hours after 3 mg/kg intravenously, listed as LAT1233×1
# [14] = 4 hours after 3 mg/kg intravenously, listed as LAT1233x1
# [15] = 4 hours after 3 mg/kg intravenously, listed as LAT1233×1
# [16] = Pre-dosing, 3 mg/kg group, listed as LAT1233x1, 3 mg/kg
# [17] = Pre-dosing, 3 mg/kg group, listed as LAT1233×1, 3 mg/kg
Substance,IL-6 levels in the BAL fluid (HKx31 (H3N2)),viral titres (HKx31 (H3N2); day 3),"BAL IL-6 activity score (HKx31 (H3N2); mouse, in vivo, 10 mg/kg)","PMN activity score (HKx31 (H3N2); mouse, in vivo, 10 mg/kg)","Viral titre activity score (HKx31 (H3N2); mouse, in vivo, 10 mg/kg)","reducing the PMN infiltrate in BAL fluid, compared with the peptide of SEQ ID NO:38 (HKx31 (H3N2); single 10 mg/kg dose)",also measured
RSVEGS [SEQ ID NO: 9],–,–,–,–,–,–,contralateral Paw withdrawal threshold (Chung model rats; [1]): 15.00 ± 0.00 g; ipsilateral Paw withdrawal threshold (Chung model rats; [1]): 7.83±1.72 g and 7.83 ± 1.72 ^ g; contralateral Paw withdrawal threshold (Chung model rats; [2]): 15.00 ± 0.00 g; ipsilateral Paw withdrawal threshold (Chung model rats; [2]): 9.67±1.73 g and 9.67 ± 1.73 ▴* g; contralateral Paw withdrawal threshold (Chung model rats; [3]): 15.00 ± 0.00 g; ipsilateral Paw withdrawal threshold (Chung model rats; [3]): 8.17±1.60 g and 8.17 ± 1.60 ^ g; contralateral Paw withdrawal threshold (Chung model rats; [4]): 14.17 ± 0.83 g; ipsilateral Paw withdrawal threshold (Chung model rats; [4]): 3.33 ± 0.42 g
23 (RPVESS) [compound 23],as effective,effective,1,1,2,relatively less effective,–
56 (RSVEG) [compound 56],as effective,effective,2,2,2,as effective,–
49 (RALNST) [compound 49],as effective,–,2,–,–,–,PMN activity score (HKx31 (H3N2); [5]): 0; Viral titre activity score (HKx31 (H3N2); [6]): 0
50 (RALQSS) [compound 50],as effective,effective,2,1,2,relatively less effective,–
52 (PALNTS) [compound 52],as effective,effective,2,–,2,did not show any changes,PMN activity score (HKx31 (H3N2); [5]): 0
SVEGS [SEQ ID NO: 62],–,–,–,–,–,–,"contralateral Paw withdrawal threshold (Chung model rats; [7]): 15.00 ± 0.00 g; ipsilateral Paw withdrawal threshold (Chung model rats; [7]): 11.17 ± 1.74 ▴** g; contralateral Paw withdrawal threshold (Chung model rats; [8]): 15.00 ± 0.00 g; ipsilateral Paw withdrawal threshold (Chung model rats; [8]): 12.67 ± 1.56 ▴*** g; contralateral Paw withdrawal threshold (Chung model rats; [9]): 15.00 ± 0.00 g; ipsilateral Paw withdrawal threshold (Chung model rats; [9]): 11.00 ± 1.41 ▴** g; contralateral Paw withdrawal threshold (Chung model rats; Pre-dosing, 3 mg/kg group): 15.00 ± 0.00 g; ipsilateral Paw withdrawal threshold (Chung model rats; Pre-dosing, 3 mg/kg group): 3.33 ± 0.42 g"
44 (HIVESS) [compound 44],as effective,–,2,–,1,did not show any changes,PMN activity score (HKx31 (H3N2); [5]): 0
41 (RALNSS; SITE 1 Arg 1 is bonded to Ser 6; SITE 6 Ser 6 is bonded to Arg 1) [compound 41],–,–,–,1,–,relatively less effective,–
57 (RSVE) [compound 57],–,–,–,1,–,relatively less effective,"BAL IL-6 activity score (HKx31 (H3N2); IL-6 in BAL fluid, single 10 mg/kg dose, relative to SEQ ID NO:38): 0; Viral titre activity score (HKx31 (H3N2); [6]): 0"
ALNSS [SEQ ID NO: 63],–,–,–,–,–,–,contralateral Paw withdrawal threshold (Chung model rats; [10]): 15.00 ± 0.00 g; ipsilateral Paw withdrawal threshold (Chung model rats; [10]): 10.67 ± 1.67 ▴** g; contralateral Paw withdrawal threshold (Chung model rats; [11]): 15.00 ± 0.00 g; ipsilateral Paw withdrawal threshold (Chung model rats; [11]): 10.67 ± 1.67 g; contralateral Paw withdrawal threshold (Chung model rats; [12]): 14.17 ± 0.83 g; ipsilateral Paw withdrawal threshold (Chung model rats; [12]): 11.50 ± 1.80 ▴** g; contralateral Paw withdrawal threshold (Chung model rats; [13]): 14.17 ± 0.83 g; ipsilateral Paw withdrawal threshold (Chung model rats; [13]): 11.50 ± 1.80 g; contralateral Paw withdrawal threshold (Chung model rats; [14]): 15.00 ± 0.00 g; ipsilateral Paw withdrawal threshold (Chung model rats; [14]): 10.17 ± 1.17 ▴** g; contralateral Paw withdrawal threshold (Chung model rats; [15]): 15.00 ± 0.00 g; ipsilateral Paw withdrawal threshold (Chung model rats; [15]): 10.17 ± 1.17 g; contralateral Paw withdrawal threshold (Chung model rats; [16]): 15.00 ± 0.00 g; ipsilateral Paw withdrawal threshold (Chung model rats; [16]): 3.33 ± 0.42 g; contralateral Paw withdrawal threshold (Chung model rats; [17]): 15.00 ± 0.00 g; ipsilateral Paw withdrawal threshold (Chung model rats; [17]): 3.33 ± 0.42 g
43 (RALRTK) [compound 43],–,–,–,–,–,did not show any changes,–
47 (RAVESS) [compound 47],as effective,–,2,–,1,–,PMN activity score (HKx31 (H3N2); [5]): 0
29 (RIIHNN) [compound 29],as effective,effective,2,2,2,as effective,–
